Source: US20240116985A1, “STAPLED PEPTIDES AND METHODS THEREOF” (priority 2020, published 2024)
Like-named read-outs stand apart in the source and are kept apart here.

Assays:
COLO320DM cells = format: cell-based; conditions: COLO320DM cells, read-out: COLO320DM Proliferation Abs IC50
Description: COLO320DM proliferation assay IC50: In some embodiments, inhibition of cell proliferation by provided technologies were assessed using cell lines related to or from certain conditions, disorders or diseases. In some embodiments, cell proliferation was assessed in COLO320DM cells. In some embodiments, assessment was performed using the following procedure: On Day 1, cultured COLO320DM cells in a T75 flask were trypsinized in 3 mL of 0.25% trypsin/EDTA for 5 min and quenched with 10 mL RPMI-1640+4% HI FBS assay media. The cells were spun down at 1200 rpm for 5 min, the cell pellet collected and re-suspended at 5000 cells/mL in assay media. Using a Combi liquid handler, cells were dispensed (50 uL, 250 cells/well) into three 384 well plates. Plates were incubated at 37° C., […]. On day 2, compounds were added. A liquid handling system was used to prepare the compound dilution and dispense compound into assay plates. The compounds were serially diluted 1/2 in 90% DMSO to create a 7 point dose curve. From compound plate, 100 nL of compound were dispensed directly into wells of the assay plates to create a dose curve starting at 20 uM and ending at 313 nM. Assay plates were incubated at 37° C., […]. On day 6, assay plates were removed from the incubator and allowed to sit at room temperature for 30 min. Using a liquid handler, 20 uL of CellTiter Glo reagent was added to each well. The assay plates were shaken for 2 min and allowed to sit on the bench for 10-15 minutes. The assay plates were read using the CellTiter Glo protocol on a GloMax microplate reader, and the data analyzed using GraphPad Prism.

[1] = biological target: T1, beta-catenin/TCF4 engagement (Homo sapiens, UniProt P35222); experiment: Nano-BRET target engagement assay (B-cat-Halo & TCF4-Luc in HEK293 cells); format: cell-based
T1 construct: expressed in transfected cells; host or cells: HEK293
T1 sequence (P35222 1-781): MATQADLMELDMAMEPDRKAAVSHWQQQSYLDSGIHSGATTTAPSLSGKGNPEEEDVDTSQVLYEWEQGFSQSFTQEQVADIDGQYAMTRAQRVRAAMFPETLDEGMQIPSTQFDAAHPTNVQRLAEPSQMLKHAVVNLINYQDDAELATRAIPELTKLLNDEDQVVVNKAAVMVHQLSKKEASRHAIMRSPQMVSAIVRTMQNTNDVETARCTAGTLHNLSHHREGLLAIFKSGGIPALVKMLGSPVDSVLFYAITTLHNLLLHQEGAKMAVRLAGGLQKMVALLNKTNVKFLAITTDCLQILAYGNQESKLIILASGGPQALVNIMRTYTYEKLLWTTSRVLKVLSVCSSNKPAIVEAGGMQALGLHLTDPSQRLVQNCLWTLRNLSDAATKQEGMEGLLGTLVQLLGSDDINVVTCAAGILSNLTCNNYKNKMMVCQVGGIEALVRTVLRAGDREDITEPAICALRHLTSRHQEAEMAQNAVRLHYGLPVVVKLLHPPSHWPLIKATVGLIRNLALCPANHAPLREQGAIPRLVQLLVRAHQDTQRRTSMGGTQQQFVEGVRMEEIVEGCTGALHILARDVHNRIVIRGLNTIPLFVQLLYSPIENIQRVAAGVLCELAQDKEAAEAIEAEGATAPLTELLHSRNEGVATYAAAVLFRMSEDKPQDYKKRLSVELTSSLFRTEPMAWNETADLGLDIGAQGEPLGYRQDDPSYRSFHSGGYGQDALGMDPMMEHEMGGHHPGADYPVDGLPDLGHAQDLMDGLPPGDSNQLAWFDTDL

[2] = test system: TCF/LEF luciferase Reporter in DLD1 cells; experiment: TCF reporter assay (DLD1 TCF/LEF luciferase reporter, Bright-Glo); format: cell-based; conditions: read-out: DLD1 4% Abs IC50
Outline: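 Readouts: Bright-Glo luciferase for reporter signal and CellTiter-Glo for cell viability, with absolute IC50 derived. The reporter clone came from lentiviral TCF/LEF-luciferase transduction of DLD1 cells, seeded 5000 cells/well in RPMI with 4% FBS and exposed overnight to serially diluted compounds.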

[3] = biological target: T2, full-length beta-Catenin (Uniprot ID P35222) (Homo sapiens, UniProt P35222); experiment: Fluorescence polarization IC50 (beta-catenin / 5FAM-TCF4 10-53 competition); format: binding; conditions: fluorescence polarization; read-out: beta-Catenin FP IC50
T2 construct: 10 nM full-length beta-Catenin (Uniprot ID P35222)
T2 sequence (P35222 1-781): T1 sequence (P35222 1-781)

[4] = absolute IC50, read-out: NanoBRET Abs IC50

| Structure (SMILES) | IC50 (COLO320DM cells; absolute IC50) [µM] | IC50 ([1]; NanoBRET Abs IC50 (uM), absolute IC50) [µM] | IC50 ([2]; DLD1 reporter, 4%, absolute IC50) [µM] | IC50 (COLO320DM cells) [µM] | IC50 [3] [µM] | IC50 ([2]; DLD1 4%) [µM] | IC50 [1, 4] [µM] | IC50 ([1]; read-out: NanoBRET Abs IC50) [µM] |
| --- | --- | --- | --- | --- | --- | --- | --- | --- |
| CC(=O)N1CCC[C@]12CC=CCCCC1(CCCC=CCCCOC(=O)N3CC[C@@](C(=O)N[C@@H](Cc4ccsc4)C(=O)N[C@@H](Cc4csc5ccccc45)C(=O)N[C@@H](CC(N)=O)C(=O)N[C@@H](CC(C)C)C(=O)N[C@@H](CC(C)C)C(=O)N[C@@H](CC(C)C)C(=O)N[C@@H](CC(C)C)C(=O)N[C@@H](CC(C)C)C(N)=O)(C3)NC(=O)[C@H](CC(C)C)NC(=O)[C@H](Cc3ccccc3)NC(=O)[C@H](C)NC(=O)[C@H](C)NC(=O)[C@H](Cc3cccc(C(=O)O)c3)NC(=O)[C@H](CC(=O)O)NC1=O)NC(=O)[C@H](CC(C)(C)C)NC(=O)[C@H](CC(=O)O)NC2=O (single isomer, unassigned) [I-2280, Ac-PL3-Asp-Npg-B5-Asp-3COOHF-Ala-Ala-Phe-Leu-PyrS2-3Thi-BztA-Asn-Leu-Leu-Leu-Leu-Leu-NH2] | > 20 | > 20 | > 20 |  |  |  |  |  |
| CC(=O)N1CCC[C@]12CC=CCCCC1(CCCC=CCCCOC(=O)N3CC[C@@](C(=O)N[C@@H](Cc4ccccc4C(F)(F)F)C(=O)N[C@@H](Cc4csc5ccccc45)C(=O)N[C@@H](C)C(N)=O)(C3)NC(=O)[C@H](CC(C)C)NC(=O)[C@H](Cc3ccccc3)NC(=O)[C@H](C)NC(=O)[C@H](CCC(N)=O)NC(=O)[C@H](Cc3cccc(C(=O)O)c3)NC(=O)[C@H](CC(=O)O)NC1=O)NC(=O)[C@H](CC(C)(C)C)NC(=O)[C@H](CC(=O)O)NC2=O (stereo partly drawn) [I-2057, Ac-PL3-Asp-Npg-B5-Asp-3COOHF-Gln-Ala-Phe-Leu-PyrS2-2F3MeF-BztA-Ala-NH2] |  |  |  | > 20 | 0.017 | 4 |  |  |
| CC(=O)N1CCC[C@]12CC=CCCCC1(CCCC=CCCCOC(=O)N3CC[C@@](C(=O)N[C@@H](Cc4ccccc4C(F)(F)F)C(=O)N[C@@H](Cc4csc5ccccc45)C(=O)N[C@@H](CCC(N)=O)C(=O)N[C@@H](CC(C)C)C(=O)N[C@@H](CC(C)C)C(N)=O)(C3)NC(=O)[C@H](CC(C)C)NC(=O)[C@H](Cc3ccccc3)NC(=O)[C@H](C)NC(=O)[C@H](C)NC(=O)[C@H](Cc3cccc(C(=O)O)c3)NC(=O)[C@H](CC(=O)O)NC1=O)NC(=O)[C@H](CC(C)(C)C)NC(=O)[C@H](CC(=O)O)NC2=O (stereo partly drawn) [I-2380, Ac-PL3-Asp-Npg-B5-Asp-3COOHF-Ala-Ala-Phe-Leu-PyrS2-2F3MeF-BztA-Gln-Leu-Leu-NH2] | > 20 |  |  |  | 0.33 |  | 2.7 |  |
| CC(=O)N1CCC[C@]12CC=CCCCC1(CCCC=CCCCOC(=O)N3CC[C@@](C(=O)N[C@@H](Cc4ccccc4C(F)(F)F)C(=O)N[C@@H](Cc4csc5ccccc45)C(=O)N[C@@H](CCC(=O)N(C)C)C(N)=O)(C3)NC(=O)[C@H](CC(C)C)NC(=O)[C@H](Cc3ccccc3)NC(=O)[C@H](C)NC(=O)[C@H](C)NC(=O)[C@H](Cc3cccc(C(=O)O)c3)NC(=O)[C@H](CC(=O)O)NC1=O)NC(=O)[C@H](CC(C)(C)C)NC(=O)[C@H](CC(=O)O)NC2=O (stereo partly drawn) [I-2532, Ac-PL3-Asp-Npg-B5-Asp-3COOHF-Ala-Ala-Phe-Leu-PyrS2-2F3MeF-BztA-Me2Gln-NH2] | > 20 |  |  |  | 0.014 |  | 4.5 |  |
| CCCC[C@@H]1NC(=O)[C@H](Cc2ccccc2)NC(=O)[C@H](C)NC(=O)[C@H](C)NC(=O)[C@H](Cc2cccc(C(=O)O)c2)NC(=O)[C@H](CC(=O)O)NC(=O)C2(CCCC=CCCCOC(=O)N3CC[C@@](C(=O)N[C@@H](Cc4ccccc4C(F)(F)F)C(=O)N[C@@H](Cc4csc5ccccc45)C(=O)N[C@@H](CCC(=O)N(C)C)C(N)=O)(C3)NC1=O)CCCC=CC[C@]1(CCCN1C(C)=O)C(=O)N[C@@H](CC(=O)O)C(=O)N[C@@H](CC(C)(C)C)C(=O)N2 (stereo partly drawn) [I-2533, Ac-PL3-Asp-Npg-B5-Asp-3COOHF-Ala-Ala-Phe-nLeu-PyrS2-2F3MeF-BztA-Me2Gln-NH2] | > 20 |  |  |  | 0.028 |  | 6.2 |  |
| CC(=O)N1CCC[C@]12CC=CCCCC1(CCCC=CCCCOC(=O)N3CC[C@@](C(=O)N[C@@H](Cc4ccccc4C(F)(F)F)C(=O)N[C@@H](Cc4csc5ccccc45)C(=O)N[C@@H](CCC(=O)N4CCOCC4)C(N)=O)(C3)NC(=O)[C@H](CC(C)C)NC(=O)[C@H](Cc3ccccc3)NC(=O)[C@H](C)NC(=O)[C@H](C)NC(=O)[C@H](Cc3cccc(C(=O)O)c3)NC(=O)[C@H](CC(=O)O)NC1=O)NC(=O)[C@H](CC(C)(C)C)NC(=O)[C@H](CC(=O)O)NC2=O (stereo partly drawn) [I-2541, Ac-PL3-Asp-Npg-B5-Asp-3COOHF-Ala-Ala-Phe-Leu-PyrS2-2F3MeF-BztA-MorphGln-NH2] | > 20 |  |  |  | 0.021 |  | 4.7 |  |
| CCCC[C@@H]1NC(=O)[C@H](Cc2ccccc2)NC(=O)[C@H](C)NC(=O)[C@H](C)NC(=O)[C@H](Cc2cccc(C(=O)O)c2)NC(=O)[C@H](CC(=O)O)NC(=O)C2(CCCC=CCCCOC(=O)N3CC[C@@](C(=O)N[C@@H](Cc4ccccc4C(F)(F)F)C(=O)N[C@@H](Cc4csc5ccccc45)C(=O)N[C@@H](CCC(=O)N4CCOCC4)C(N)=O)(C3)NC1=O)CCCC=CC[C@]1(CCCN1C(C)=O)C(=O)N[C@@H](CC(=O)O)C(=O)N[C@@H](CC(C)(C)C)C(=O)N2 (stereo partly drawn) [I-2542, Ac-PL3-Asp-Npg-B5-Asp-3COOHF-Ala-Ala-Phe-nLeu-PyrS2-2F3MeF-BztA-MorphGln-NH2] | > 20 |  |  |  | 0.023 |  | 4 |  |
| CC(=O)N1CCC[C@]12CC=CCCCC1(CCCC=CCCCOC(=O)N3CC[C@@](C(=O)N[C@@H](Cc4ccsc4)C(=O)N[C@@H](Cc4csc5ccccc45)C(=O)N[C@H](CO)C(=O)N[C@@H](C)C(N)=O)(C3)NC(=O)[C@@H](CO)NC(=O)[C@H](Cc3ccccc3)NC(=O)[C@H](C)NC(=O)C(C)(C)NC(=O)[C@H](Cc3cccc(C(=O)O)c3)NC(=O)[C@H](CC(=O)O)NC1=O)NC(=O)[C@H](CC(C)(C)C)NC(=O)[C@H](CC(=O)O)NC2=O (stereo partly drawn) [I-2576, Ac-PL3-Asp-Npg-B5-Asp-3COOHF-Aib-Ala-Phe-dSer-PyrS2-3Thi-BztA-dSer-Ala-NH2] |  |  |  | > 20 | 0.006 |  |  | 16.1 |
| CC(=O)N1CCC[C@]12CC=CCCCC1(CCCC=CCCCOC(=O)N3CC[C@@](C(=O)N[C@@H](Cc4ccsc4)C(=O)N[C@@H](Cc4csc5ccccc45)C(=O)N[C@@H](CO)C(=O)N[C@@H](C)C(N)=O)(C3)NC(=O)[C@H](CO)NC(=O)[C@H](Cc3ccccc3)NC(=O)[C@H](C)NC(=O)C(C)(C)NC(=O)[C@H](Cc3cccc(C(=O)O)c3)NC(=O)[C@H](CC(=O)O)NC1=O)NC(=O)[C@H](CC(C)(C)C)NC(=O)[C@H](CC(=O)O)NC2=O (stereo partly drawn) [I-2577, Ac-PL3-Asp-Npg-B5-Asp-3COOHF-Aib-Ala-Phe-Ser-PyrS2-3Thi-BztA-Ser-Ala-NH2] |  |  |  | 9.5 | 0.007 |  |  | 2.7 |
| CC(=O)NCCCC[C@@H]1NC(=O)[C@H](Cc2ccccc2)NC(=O)[C@H](C)NC(=O)C(C)(C)NC(=O)[C@H](Cc2cccc(C(=O)O)c2)NC(=O)[C@H](CC(=O)O)NC(=O)C2(CCCC=CCCCOC(=O)N3CC[C@@](C(=O)N[C@@H](Cc4ccccc4C(F)(F)F)C(=O)N[C@@H](Cc4csc5ccccc45)C(=O)N[C@@H](C)C(=O)N[C@@H](C)C(N)=O)(C3)NC1=O)CCCC=CC[C@]1(CCCN1C(C)=O)C(=O)N[C@@H](CC(=O)O)C(=O)N[C@@H](CC(C)(C)C)C(=O)N2 (stereo partly drawn) [I-2579, Ac-PL3-Asp-Npg-B5-Asp-3COOHF-Aib-Ala-Phe-AcLys-PyrS2-2F3MeF-BztA-Ala-Ala-NH2] |  |  |  | 15.3 | 0.041 |  |  | 4.7 |
